biological target: AChE (Homo sapiens, UniProt P22303); assay: AChE inhibitory assay in vitro; format: biochemical
Sequence (P22303 32-614): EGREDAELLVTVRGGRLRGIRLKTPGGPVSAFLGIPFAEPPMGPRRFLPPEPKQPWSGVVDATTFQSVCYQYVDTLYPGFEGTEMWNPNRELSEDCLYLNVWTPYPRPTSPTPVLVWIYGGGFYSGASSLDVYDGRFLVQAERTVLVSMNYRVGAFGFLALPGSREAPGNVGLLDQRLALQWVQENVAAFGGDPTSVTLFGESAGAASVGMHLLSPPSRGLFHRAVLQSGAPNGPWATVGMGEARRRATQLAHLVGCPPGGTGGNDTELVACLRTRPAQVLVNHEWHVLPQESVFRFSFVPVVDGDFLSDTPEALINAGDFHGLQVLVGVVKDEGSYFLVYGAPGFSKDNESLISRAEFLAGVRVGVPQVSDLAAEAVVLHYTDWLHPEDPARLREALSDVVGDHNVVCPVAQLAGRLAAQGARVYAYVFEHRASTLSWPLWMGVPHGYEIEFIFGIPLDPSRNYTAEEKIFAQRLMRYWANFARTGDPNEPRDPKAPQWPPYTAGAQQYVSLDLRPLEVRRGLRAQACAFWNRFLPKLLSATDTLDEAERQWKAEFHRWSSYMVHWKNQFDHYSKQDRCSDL

**Q.** How did the IC50 turn out when `O=c1c(O)c(-c2ccc(O)cc2)oc2cc(O)cc(O)c12` [Compound 8, kaempferol] was run?
**A.** Its IC50 is 17.9 ± 0.18 µM.

**Q.** With `O=c1c(O)c(-c2ccc(O)c(O)c2)oc2cc(O)cc(O)c12` [Compound 9, quercetin] as the compound, how does the IC50 read?
**A.** The IC50 was 3.96 ± 0.27 µM.

**Q.** `O=C1c2c(O)cc(O)cc2O[C@H](c2ccc(O)cc2)[C@H]1O` [Compound 10, dihydrokaempferol] was tested. Which IC50 did it give?
**A.** Its IC50 is > 50 µM.

— PMC9728092 (RSC Advances, 2022)
